Laboratory results as given in ChEMBL document CHEMBL5442175, “EUbOPEN Chemogenomics Library - PDSP Secondary Binding” (2024).
Structures can show the parent of a compound that is named as a salt. Blank lines part the entries; values can stand above or below the molecule they belong to.

How the values were obtained:
D(3) dopamine receptor = D(3) dopamine receptor (Homo sapiens, UniProt P35462); experiment: (§1) PDSP Secondary Binding target: DRD3 - Compounds are tested at 10 uM concentration, plate are incubated at room temperature in the dark for 90 minutes. Reaction are stopped by vacuum filtration onto 0.3% polyethyleneimine soaked filter mats using Filtermate harvester. Scintillation cocktail is then melted onto microwave-dried filters on a hot plate and the radio activity is counted in Microbia counter.
D(3) dopamine receptor, sequence (P35462 whole entry): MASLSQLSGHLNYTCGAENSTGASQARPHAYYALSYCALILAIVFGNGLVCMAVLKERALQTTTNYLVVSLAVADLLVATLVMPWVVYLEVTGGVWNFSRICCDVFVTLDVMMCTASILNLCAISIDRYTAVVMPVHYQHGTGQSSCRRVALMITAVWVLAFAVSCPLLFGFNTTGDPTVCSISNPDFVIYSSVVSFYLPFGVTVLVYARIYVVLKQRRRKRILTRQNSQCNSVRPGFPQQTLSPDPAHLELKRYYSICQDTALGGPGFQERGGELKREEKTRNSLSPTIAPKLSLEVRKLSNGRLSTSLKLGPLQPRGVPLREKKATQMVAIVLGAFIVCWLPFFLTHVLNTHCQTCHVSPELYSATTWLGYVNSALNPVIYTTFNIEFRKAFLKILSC

[1] = target: Beta-2 adrenergic receptor (Homo sapiens, UniProt P07550); experiment: as §1, with “ADRB2” for “DRD3”
Beta-2 adrenergic receptor, sequence (P07550 whole entry): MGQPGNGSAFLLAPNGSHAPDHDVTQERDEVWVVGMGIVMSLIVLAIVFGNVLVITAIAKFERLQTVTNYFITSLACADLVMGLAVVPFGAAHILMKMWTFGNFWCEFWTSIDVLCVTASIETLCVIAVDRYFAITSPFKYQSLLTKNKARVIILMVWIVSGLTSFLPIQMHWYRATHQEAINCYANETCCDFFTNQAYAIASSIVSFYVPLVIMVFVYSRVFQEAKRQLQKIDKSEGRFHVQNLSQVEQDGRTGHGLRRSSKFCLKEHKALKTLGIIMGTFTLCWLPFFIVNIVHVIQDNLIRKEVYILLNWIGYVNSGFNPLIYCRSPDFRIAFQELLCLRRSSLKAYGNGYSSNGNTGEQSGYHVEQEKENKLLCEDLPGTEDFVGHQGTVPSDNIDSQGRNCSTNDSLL

Translocator protein = Translocator protein (Homo sapiens, UniProt P30536); experiment: as §1, with “TSPO” for “DRD3”
[2] = target: Kappa-type opioid receptor (Homo sapiens, UniProt P41145); experiment: as §1, with “OPRK1” for “DRD3”
Kappa-type opioid receptor, sequence (P41145 whole entry): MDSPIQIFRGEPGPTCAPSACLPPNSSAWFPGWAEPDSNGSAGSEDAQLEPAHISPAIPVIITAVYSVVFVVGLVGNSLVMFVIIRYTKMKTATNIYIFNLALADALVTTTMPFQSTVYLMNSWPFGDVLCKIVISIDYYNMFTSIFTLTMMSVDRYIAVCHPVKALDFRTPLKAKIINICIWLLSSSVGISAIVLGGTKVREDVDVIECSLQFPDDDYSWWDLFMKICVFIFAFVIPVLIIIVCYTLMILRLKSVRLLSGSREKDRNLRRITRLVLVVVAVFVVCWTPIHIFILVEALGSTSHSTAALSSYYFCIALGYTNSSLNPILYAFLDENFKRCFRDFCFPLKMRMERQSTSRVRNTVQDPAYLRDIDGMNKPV

[3] = target: T1, Muscarinic acetylcholine receptor M2 (Homo sapiens, UniProt P08172); experiment: as §1, with “CHRM2” for “DRD3”
T1 sequence (P08172 whole entry): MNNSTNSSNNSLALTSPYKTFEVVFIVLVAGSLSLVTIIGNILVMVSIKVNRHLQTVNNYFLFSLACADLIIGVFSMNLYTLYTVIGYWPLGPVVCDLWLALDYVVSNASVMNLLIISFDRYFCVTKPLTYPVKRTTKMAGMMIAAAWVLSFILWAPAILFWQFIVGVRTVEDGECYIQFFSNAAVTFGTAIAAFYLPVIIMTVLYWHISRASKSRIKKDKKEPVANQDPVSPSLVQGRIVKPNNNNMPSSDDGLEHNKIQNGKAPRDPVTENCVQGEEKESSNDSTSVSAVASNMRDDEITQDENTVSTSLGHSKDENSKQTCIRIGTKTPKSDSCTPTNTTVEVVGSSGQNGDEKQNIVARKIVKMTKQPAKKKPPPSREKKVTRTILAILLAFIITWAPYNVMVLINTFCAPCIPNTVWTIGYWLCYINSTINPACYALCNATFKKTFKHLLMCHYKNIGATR

[4] = target: 5-hydroxytryptamine receptor 2B (Homo sapiens, UniProt P41595); experiment: as §1, with “HTR2B” for “DRD3”
5-hydroxytryptamine receptor 2B, sequence (P41595 whole entry): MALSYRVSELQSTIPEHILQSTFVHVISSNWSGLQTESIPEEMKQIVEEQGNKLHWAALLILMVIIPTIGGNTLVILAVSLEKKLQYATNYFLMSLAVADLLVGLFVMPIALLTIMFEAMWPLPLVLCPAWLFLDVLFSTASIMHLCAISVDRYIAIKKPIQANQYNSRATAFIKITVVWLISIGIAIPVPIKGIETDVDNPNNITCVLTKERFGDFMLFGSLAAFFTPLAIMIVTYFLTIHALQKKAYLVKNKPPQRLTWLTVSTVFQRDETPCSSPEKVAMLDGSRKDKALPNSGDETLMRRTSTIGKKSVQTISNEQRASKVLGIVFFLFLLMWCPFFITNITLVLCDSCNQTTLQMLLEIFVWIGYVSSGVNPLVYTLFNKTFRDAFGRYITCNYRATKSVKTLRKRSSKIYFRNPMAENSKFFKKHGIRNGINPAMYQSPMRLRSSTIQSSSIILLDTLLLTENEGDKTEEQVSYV

[5] = target: Sigma non-opioid intracellular receptor 1 (Homo sapiens, UniProt Q99720); experiment: as §1, with “SIGMAR1” for “DRD3”
Sigma non-opioid intracellular receptor 1, sequence (Q99720 whole entry): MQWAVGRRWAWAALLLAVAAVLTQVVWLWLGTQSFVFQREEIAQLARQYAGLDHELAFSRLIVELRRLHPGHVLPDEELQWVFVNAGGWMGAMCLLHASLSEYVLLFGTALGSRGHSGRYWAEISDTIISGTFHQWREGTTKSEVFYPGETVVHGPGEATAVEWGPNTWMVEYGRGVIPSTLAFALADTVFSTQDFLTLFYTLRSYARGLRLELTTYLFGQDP

D(1A) dopamine receptor = D(1A) dopamine receptor (Homo sapiens, UniProt P21728); experiment: as §1, with “DRD1” for “DRD3”
D(1A) dopamine receptor, sequence (P21728 whole entry): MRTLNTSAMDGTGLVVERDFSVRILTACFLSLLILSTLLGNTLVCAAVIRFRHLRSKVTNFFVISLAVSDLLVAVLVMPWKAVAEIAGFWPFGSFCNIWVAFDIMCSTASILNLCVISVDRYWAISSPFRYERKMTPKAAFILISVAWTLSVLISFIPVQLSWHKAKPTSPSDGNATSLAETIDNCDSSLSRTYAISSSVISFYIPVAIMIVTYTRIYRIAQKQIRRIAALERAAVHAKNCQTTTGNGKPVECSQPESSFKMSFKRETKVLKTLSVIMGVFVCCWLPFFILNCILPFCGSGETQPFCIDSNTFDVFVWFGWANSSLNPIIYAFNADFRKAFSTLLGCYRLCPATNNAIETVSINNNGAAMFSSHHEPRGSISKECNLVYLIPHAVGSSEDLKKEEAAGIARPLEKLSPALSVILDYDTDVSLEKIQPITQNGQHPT

[6] = target: T2, Muscarinic acetylcholine receptor M1 (Homo sapiens, UniProt P11229); experiment: as §1, with “CHRM1” for “DRD3”
T2 sequence (P11229 whole entry): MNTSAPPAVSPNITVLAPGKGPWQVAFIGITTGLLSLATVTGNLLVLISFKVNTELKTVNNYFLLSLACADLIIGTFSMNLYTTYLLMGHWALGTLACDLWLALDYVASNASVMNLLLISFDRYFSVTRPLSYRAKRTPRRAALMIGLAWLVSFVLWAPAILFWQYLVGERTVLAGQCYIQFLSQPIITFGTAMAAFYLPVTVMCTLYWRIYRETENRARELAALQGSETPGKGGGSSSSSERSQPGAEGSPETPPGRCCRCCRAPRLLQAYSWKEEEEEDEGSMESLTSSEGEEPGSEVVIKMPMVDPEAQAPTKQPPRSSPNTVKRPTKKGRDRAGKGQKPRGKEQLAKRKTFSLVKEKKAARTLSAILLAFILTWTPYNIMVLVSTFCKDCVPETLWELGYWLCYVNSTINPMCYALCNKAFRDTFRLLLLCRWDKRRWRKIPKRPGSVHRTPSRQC

[7] = target: T3, Muscarinic acetylcholine receptor M4 (Homo sapiens, UniProt P08173); experiment: as §1, with “CHRM4” for “DRD3”
T3 sequence (P08173 whole entry): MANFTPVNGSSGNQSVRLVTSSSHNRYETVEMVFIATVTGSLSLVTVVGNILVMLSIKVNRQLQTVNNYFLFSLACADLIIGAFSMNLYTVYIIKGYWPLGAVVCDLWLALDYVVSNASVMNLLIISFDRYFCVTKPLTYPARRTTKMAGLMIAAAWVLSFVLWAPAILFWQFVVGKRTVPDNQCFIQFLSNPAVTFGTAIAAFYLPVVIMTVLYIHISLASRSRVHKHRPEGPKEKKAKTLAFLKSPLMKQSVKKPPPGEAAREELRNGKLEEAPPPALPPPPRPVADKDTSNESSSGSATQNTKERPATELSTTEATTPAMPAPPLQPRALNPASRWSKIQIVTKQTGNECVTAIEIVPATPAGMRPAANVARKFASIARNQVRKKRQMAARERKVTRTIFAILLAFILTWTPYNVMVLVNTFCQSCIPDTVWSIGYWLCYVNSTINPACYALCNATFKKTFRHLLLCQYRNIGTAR

[8] = target: Muscarinic acetylcholine receptor M3 (Homo sapiens, UniProt P20309); experiment: as §1, with “CHRM3” for “DRD3”
Muscarinic acetylcholine receptor M3, sequence (P20309 whole entry): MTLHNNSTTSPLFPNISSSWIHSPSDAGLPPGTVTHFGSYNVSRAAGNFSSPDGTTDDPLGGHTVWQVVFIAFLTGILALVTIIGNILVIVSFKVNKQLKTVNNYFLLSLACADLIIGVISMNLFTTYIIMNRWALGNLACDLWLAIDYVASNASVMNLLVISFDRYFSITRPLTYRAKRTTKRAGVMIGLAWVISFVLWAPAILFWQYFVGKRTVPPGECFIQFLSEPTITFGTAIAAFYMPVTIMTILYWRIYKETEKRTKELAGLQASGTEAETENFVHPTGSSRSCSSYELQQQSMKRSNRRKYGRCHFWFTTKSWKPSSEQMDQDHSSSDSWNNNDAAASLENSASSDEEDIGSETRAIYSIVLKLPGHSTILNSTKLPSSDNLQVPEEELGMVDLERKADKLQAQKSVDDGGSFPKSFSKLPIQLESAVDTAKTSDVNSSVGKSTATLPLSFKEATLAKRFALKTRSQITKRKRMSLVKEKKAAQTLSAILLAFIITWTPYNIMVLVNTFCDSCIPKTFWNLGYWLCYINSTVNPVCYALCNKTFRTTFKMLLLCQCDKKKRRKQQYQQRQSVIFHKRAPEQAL

[9] = target: Sigma intracellular receptor 2 (Homo sapiens, UniProt Q5BJF2); experiment: as §1, with “TMEM97” for “DRD3”
Sigma intracellular receptor 2, sequence (Q5BJF2 whole entry): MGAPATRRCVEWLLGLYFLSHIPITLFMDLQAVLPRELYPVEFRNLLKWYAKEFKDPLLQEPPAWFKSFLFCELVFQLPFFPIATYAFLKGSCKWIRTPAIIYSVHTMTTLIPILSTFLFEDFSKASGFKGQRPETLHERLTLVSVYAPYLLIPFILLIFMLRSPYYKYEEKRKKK

D(1B) dopamine receptor = D(1B) dopamine receptor (Homo sapiens, UniProt P21918); experiment: as §1, with “DRD5” for “DRD3”
D(1B) dopamine receptor, sequence (P21918 whole entry): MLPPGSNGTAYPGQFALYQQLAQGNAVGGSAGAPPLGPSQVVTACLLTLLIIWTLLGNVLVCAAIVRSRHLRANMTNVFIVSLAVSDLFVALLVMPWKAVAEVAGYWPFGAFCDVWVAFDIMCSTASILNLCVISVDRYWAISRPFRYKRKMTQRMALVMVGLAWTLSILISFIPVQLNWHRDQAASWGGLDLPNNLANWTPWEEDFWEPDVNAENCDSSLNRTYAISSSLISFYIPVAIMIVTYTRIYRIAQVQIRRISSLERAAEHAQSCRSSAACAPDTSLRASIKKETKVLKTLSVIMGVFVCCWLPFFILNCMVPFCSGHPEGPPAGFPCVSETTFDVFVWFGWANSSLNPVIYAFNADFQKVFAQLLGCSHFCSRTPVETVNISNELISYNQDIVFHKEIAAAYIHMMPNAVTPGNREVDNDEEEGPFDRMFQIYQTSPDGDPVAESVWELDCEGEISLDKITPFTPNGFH

[10] = target: T4, Muscarinic acetylcholine receptor M5 (Homo sapiens, UniProt P08912); experiment: as §1, with “CHRM5” for “DRD3”
T4 sequence (P08912 whole entry): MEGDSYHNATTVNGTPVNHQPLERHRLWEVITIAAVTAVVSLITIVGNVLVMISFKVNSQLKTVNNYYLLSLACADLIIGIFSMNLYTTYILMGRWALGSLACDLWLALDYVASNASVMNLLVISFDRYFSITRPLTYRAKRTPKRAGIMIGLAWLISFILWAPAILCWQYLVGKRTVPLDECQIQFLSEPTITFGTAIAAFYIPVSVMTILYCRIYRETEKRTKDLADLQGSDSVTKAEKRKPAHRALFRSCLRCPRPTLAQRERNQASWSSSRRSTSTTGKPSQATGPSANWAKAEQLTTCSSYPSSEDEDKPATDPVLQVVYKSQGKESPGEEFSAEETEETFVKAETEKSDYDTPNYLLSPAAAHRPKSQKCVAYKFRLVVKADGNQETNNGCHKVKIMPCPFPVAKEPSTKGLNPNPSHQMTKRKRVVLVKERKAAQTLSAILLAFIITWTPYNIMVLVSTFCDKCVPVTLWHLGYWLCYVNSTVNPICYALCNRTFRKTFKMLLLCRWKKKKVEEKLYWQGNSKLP

[11] = target: T5, Alpha-2A adrenergic receptor (Homo sapiens, UniProt P08913); experiment: as §1, with “ADRA2A” for “DRD3”
T5 sequence (P08913 whole entry): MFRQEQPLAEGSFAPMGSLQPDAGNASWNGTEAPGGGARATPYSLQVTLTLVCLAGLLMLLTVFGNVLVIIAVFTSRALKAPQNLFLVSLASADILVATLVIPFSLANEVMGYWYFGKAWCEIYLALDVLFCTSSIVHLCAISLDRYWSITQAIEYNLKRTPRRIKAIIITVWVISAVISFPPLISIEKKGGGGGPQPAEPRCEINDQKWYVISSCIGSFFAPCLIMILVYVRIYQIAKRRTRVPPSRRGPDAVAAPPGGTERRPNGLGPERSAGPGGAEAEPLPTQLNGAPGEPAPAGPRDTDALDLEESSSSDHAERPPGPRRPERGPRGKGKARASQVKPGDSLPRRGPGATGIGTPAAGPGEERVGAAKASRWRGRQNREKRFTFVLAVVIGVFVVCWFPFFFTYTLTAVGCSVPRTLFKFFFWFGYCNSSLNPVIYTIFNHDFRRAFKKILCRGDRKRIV

[12] = target: 5-hydroxytryptamine receptor 1B (Homo sapiens, UniProt P28222); experiment: as §1, with “HTR1B” for “DRD3”
[13] = target: T6, 5-hydroxytryptamine receptor 3A (Homo sapiens, UniProt P46098); experiment: as §1, with “HTR3A” for “DRD3”
T6 sequence (P46098 whole entry): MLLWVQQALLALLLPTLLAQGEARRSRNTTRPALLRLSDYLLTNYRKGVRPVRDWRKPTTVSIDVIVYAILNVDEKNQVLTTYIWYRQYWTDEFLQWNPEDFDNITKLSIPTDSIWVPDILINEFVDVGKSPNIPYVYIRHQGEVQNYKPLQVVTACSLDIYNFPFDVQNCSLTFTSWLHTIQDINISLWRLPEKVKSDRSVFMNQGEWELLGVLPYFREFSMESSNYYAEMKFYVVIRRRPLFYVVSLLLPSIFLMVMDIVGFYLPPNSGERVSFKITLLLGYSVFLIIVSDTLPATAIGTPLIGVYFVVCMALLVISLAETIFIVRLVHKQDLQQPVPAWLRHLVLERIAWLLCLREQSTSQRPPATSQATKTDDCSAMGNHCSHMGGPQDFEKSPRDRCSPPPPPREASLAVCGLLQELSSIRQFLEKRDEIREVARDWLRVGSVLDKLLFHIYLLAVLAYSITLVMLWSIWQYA

D(2) dopamine receptor = D(2) dopamine receptor (Homo sapiens, UniProt P14416); experiment: as §1, with “DRD2” for “DRD3”
D(2) dopamine receptor, sequence (P14416 whole entry): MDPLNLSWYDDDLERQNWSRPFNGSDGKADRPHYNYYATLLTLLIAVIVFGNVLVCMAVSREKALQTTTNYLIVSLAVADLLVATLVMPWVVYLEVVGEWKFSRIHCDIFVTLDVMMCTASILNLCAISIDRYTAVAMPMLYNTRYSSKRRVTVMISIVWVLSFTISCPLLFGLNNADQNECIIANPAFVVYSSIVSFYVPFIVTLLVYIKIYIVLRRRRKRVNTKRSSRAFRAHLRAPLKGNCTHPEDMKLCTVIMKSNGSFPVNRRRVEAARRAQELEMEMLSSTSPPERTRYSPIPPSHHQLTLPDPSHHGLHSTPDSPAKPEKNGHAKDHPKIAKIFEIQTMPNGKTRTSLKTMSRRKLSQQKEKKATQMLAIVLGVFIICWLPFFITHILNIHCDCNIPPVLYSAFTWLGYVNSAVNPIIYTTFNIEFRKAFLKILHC

[14] = target: 5-hydroxytryptamine receptor 7 (Homo sapiens, UniProt P34969); experiment: as §1, with “HTR7” for “DRD3”
[15] = target: 5-hydroxytryptamine receptor 6 (Homo sapiens, UniProt P50406); experiment: as §1, with “HTR6” for “DRD3”
5-hydroxytryptamine receptor 6, sequence (P50406 whole entry): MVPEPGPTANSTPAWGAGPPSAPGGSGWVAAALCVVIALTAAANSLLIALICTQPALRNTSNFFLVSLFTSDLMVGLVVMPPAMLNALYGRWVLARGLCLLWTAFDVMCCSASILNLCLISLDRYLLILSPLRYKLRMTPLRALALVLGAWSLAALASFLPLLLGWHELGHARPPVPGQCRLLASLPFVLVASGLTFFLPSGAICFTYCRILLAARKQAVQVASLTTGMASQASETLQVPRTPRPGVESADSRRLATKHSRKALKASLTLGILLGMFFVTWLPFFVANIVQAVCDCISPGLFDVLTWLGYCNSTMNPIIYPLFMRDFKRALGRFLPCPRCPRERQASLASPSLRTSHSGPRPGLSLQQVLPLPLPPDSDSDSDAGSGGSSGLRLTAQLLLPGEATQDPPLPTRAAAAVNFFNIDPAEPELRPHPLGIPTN

[16] = target: 5-hydroxytryptamine receptor 2A (Homo sapiens, UniProt P28223); experiment: as §1, with “HTR2A” for “DRD3”
5-hydroxytryptamine receptor 2A, sequence (P28223 whole entry): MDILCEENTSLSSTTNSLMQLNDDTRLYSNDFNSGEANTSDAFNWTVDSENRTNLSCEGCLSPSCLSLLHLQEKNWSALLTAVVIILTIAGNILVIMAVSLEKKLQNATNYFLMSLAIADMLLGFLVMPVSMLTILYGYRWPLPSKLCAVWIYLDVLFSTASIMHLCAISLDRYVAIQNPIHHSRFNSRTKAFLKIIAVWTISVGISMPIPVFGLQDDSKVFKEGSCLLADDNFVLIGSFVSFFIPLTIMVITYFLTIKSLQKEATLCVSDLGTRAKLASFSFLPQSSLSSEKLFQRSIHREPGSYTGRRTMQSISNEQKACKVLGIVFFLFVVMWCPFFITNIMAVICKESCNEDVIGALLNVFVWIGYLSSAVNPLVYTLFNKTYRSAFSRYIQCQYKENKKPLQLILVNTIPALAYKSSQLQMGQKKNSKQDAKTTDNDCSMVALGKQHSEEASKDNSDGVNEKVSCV

Ki (D(3) dopamine receptor): 1420 nM
Ki [1]: > 10000 nM
SMILES: O=C(O)C1CN(Cc2ccc(-c3nc4cc(Cc5ccccc5F)ccc4s3)c(F)c2)C1

Ki (Translocator protein): 789 nM
Ki [2]: 704 nM
Ki [3]: > 10000 nM
Ki [4]: 3050 nM
SMILES: Cc1nc(C(=O)N2CCC[C@H]2Cc2nnc(-c3ccccc3)o2)c(-c2ccccc2F)s1

Ki [5]: 391 nM
Ki (D(1A) dopamine receptor): 5280 nM
SMILES: CC(C)(C)NC[C@H](O)COc1nsnc1N1CCOCC1 [TIMOLOL]

Ki [6]: 258 nM
Ki [7]: 13.6 nM
Ki [8]: 152 nM
Ki [9]: 1310 nM
Ki (D(1B) dopamine receptor): 1850 nM
Ki [10]: 944 nM
Ki (D(1A) dopamine receptor): 740 nM
SMILES: CCN(CC)CCCCC1CCN(CC(=O)N2c3ccccc3C(=O)Nc3cccnc32)CC1

Ki (D(3) dopamine receptor): 2810 nM
Ki [3]: 9070 nM
SMILES: CCOC(=O)c1cc(C#N)c(N2CCC(C(=O)NS(=O)(=O)Cc3ccccc3)CC2)nc1C

Ki [5]: 1100 nM
Ki [3]: 6750 nM
SMILES: CC(C)NC(=O)c1ccc(C#Cc2ccncc2)cn1

Ki (D(3) dopamine receptor): 717 nM
Ki [11]: 1080 nM
Ki [12]: 1750 nM
Ki [7]: 917 nM
Ki [13]: 339 nM
Ki (D(2) dopamine receptor): 1730 nM
Ki [3]: 244 nM
Ki [14]: 407 nM
Ki [9]: 366 nM
Ki [15]: 825 nM
Ki (D(1B) dopamine receptor): 2660 nM
Ki [10]: 98.5 nM
Ki (D(1A) dopamine receptor): 299 nM
SMILES: CN1CCC(=C2c3ccccc3CC(=O)c3sccc32)CC1 [KETOTIFEN FUMARATE]

Ki [1]: > 10000 nM
Ki [5]: 668 nM
Ki [16]: 9750 nM
SMILES: CC[C@@H]1CN2C(=O)N(C)c3nc(-c4ccccc4)[nH]c3C2=N1

Ki (D(3) dopamine receptor): 912 nM
Ki [7]: 249 nM
Ki [2]: 2050 nM
Ki [8]: 707 nM
Ki [3]: 3440 nM
Ki [10]: 467 nM
SMILES: Cc1cc(C(=O)N2Cc3cnn(C)c3Nc3ccccc32)ccc1CNC(=O)N1CCC[C@H]1C(=S)N1CCCN(C)CC1

Ki (D(2) dopamine receptor): 9770 nM
Ki [5]: 5380 nM
Ki [3]: > 10000 nM
Ki [4]: 1700 nM
Ki [15]: > 10000 nM
SMILES: Cc1cc(NC(=O)Nc2ccc(N(C)C)cc2)c2cc(F)cc(F)c2n1

SMILES: Cc1cccc(NC(=O)N[C@@H]2N=C(c3ccccc3)c3ccccc3N(C)C2=O)c1 [L-365260]
Ki [4]: 6210 nM
Ki [16]: 2140 nM
Ki (D(1A) dopamine receptor): 3020 nM
